# PubChem BioAssay AID210 (DTP/NCI, 2004)
# Several values for one entry are separate records, joined by “and”; a condition that tells them apart may be missing. Equal values may be shown once. Inconclusive results and toxic doses are left out.
# Tested on: CD2F1 mice, ip Colon 26 adenocarcinoma, median survival T/C
# Assay: NCI In Vivo Anticancer Drug Screen. Data for tumor model Colon 26 Adenocarcinoma (intraperitoneal) in CD2F1 (CDF1) mice
# Conditions: endpoint: median survival time, higher = longer survival
# Description: The antitumor activity of compounds was measured in mice bearing transplantable tumors. Survival or tumor size were measured and the results are expressed as the measurement made in the treated group (T) divided by the measurement made in the vehicle treated control group (C). The tumor model used in this assay is Colon 26 Adenocarcinoma (intraperitoneal) in CD2F1 (CDF1) mice
compound,measurement,setting,value
CC1CCC(NC(=O)N(CCCl)N=O)CC1 (stereo not drawn),T/C,"dose: 5.0 mg/kg/injection, schedule: Q04DX003 (ip), vehicle: Klucel (hydroxypropylcellulose) (HPC)",250 % of control
same,T/C,"dose: 6.7 mg/kg/injection, schedule: Q04DX002 (ip), vehicle: saline with Tween-80",106 % of control
same,T/C,"dose: 10.0 mg/kg/injection, schedule: Q04DX002 (ip), vehicle: saline with Tween-80",108 % of control
same,T/C,"dose: 10.0 mg/kg/injection, schedule: Q04DX003 (ip), vehicle: Klucel (hydroxypropylcellulose) (HPC)",305 % of control
same,T/C,"dose: 12.0 mg/kg/injection, schedule: Q07DX003 (ip), vehicle: saline with Tween-80",189 % of control and 219 % of control
same,T/C,"dose: 15.0 mg/kg/injection, schedule: Q04DX002 (ip), vehicle: saline with Tween-80",123 % of control
same,T/C,"dose: 17.0 mg/kg/injection, schedule: Q07DX003 (ip), vehicle: saline with Tween-80",262 % of control and 288 % of control
same,T/C,"dose: 20.0 mg/kg/injection, schedule: Q01DX001 (ip), vehicle: other",217 % of control
same,T/C,"dose: 20.0 mg/kg/injection, schedule: Q04DX003 (ip), vehicle: Klucel (hydroxypropylcellulose) (HPC)",437 % of control
same,T/C,"dose: 24.0 mg/kg/injection, schedule: Q07DX003 (ip), vehicle: saline with Tween-80",288 % of control and 354 % of control
same,T/C,"dose: 30.0 mg/kg/injection, schedule: Q01DX001 (ip), vehicle: other",217 % of control
same,T/C,"dose: 30.0 mg/kg/injection, schedule: Q01DX005 (ip), vehicle: saline with Tween-80",352 % of control
same,T/C,"dose: 40.0 mg/kg/injection, schedule: Q01DX005 (ip), vehicle: saline with Tween-80",329 % of control
same,T/C,"dose: 55.0 mg/kg/injection, schedule: Q01DX005 (ip), vehicle: saline with Tween-80",172 % of control
CN1C(=O)CC2(CCN(CCCC(=O)c3ccc(F)cc3)CC2)C1=O,T/C,"dose: 3.12 mg/kg/injection, schedule: Q04DX003 (ip), vehicle: saline with Tween-80",96 % of control
same,T/C,"dose: 6.25 mg/kg/injection, schedule: Q04DX003 (ip), vehicle: saline with Tween-80",98 % of control
same,T/C,"dose: 12.5 mg/kg/injection, schedule: Q04DX003 (ip), vehicle: saline with Tween-80",100 % of control
same,T/C,"dose: 25.0 mg/kg/injection, schedule: Q04DX003 (ip), vehicle: saline with Tween-80",100 % of control
same,T/C,"dose: 50.0 mg/kg/injection, schedule: Q04DX003 (ip), vehicle: saline with Tween-80",102 % of control
CNc1nc2c(N)ncnc2n1C1OC(CO)C(O)C1O (stereo not drawn),T/C,"dose: 0.78 mg/kg/injection, schedule: Q04DX002 (ip), vehicle: saline",92 % of control
same,T/C,"dose: 1.56 mg/kg/injection, schedule: Q04DX002 (ip), vehicle: saline",93 % of control
same,T/C,"dose: 3.13 mg/kg/injection, schedule: Q04DX002 (ip), vehicle: saline",92 % of control
same,T/C,"dose: 6.25 mg/kg/injection, schedule: Q04DX002 (ip), vehicle: saline",96 % of control
same,T/C,"dose: 12.5 mg/kg/injection, schedule: Q04DX002 (ip), vehicle: saline",102 % of control
same,T/C,"dose: 25.0 mg/kg/injection, schedule: Q04DX002 (ip), vehicle: saline",96 % of control
NC(Cc1ccc(N(CCCl)CCCl)cc1)C(=O)O (stereo not drawn),T/C,"dose: 2.0 mg/kg/injection, schedule: Q04DX002 (ip), vehicle: Klucel (hydroxypropylcellulose) (HPC)",168 % of control
same,T/C,"dose: 4.0 mg/kg/injection, schedule: Q04DX002 (ip), vehicle: Klucel (hydroxypropylcellulose) (HPC)",253 % of control
same,T/C,"dose: 8.0 mg/kg/injection, schedule: Q04DX002 (ip), vehicle: Klucel (hydroxypropylcellulose) (HPC)",245 % of control
same,T/C,"dose: 16.0 mg/kg/injection, schedule: Q04DX002 (ip), vehicle: Klucel (hydroxypropylcellulose) (HPC)",156 % of control
COc1cccc2c1C(=O)c1c(O)c3c(c(O)c1C2=O)C[C@@](O)(C(=O)CO)C[C@@H]3OC1CC([N+](C)(C)C)C(O)C(C)O1 (stereo partly drawn),T/C,"dose: 5.4 mg/kg/injection, schedule: Q04DX003 (ip), vehicle: water",102 % of control
same,T/C,"dose: 9.0 mg/kg/injection, schedule: Q04DX003 (ip), vehicle: water",103 % of control
same,T/C,"dose: 15.0 mg/kg/injection, schedule: Q04DX003 (ip), vehicle: water",96 % of control
same,T/C,"dose: 25.0 mg/kg/injection, schedule: Q04DX003 (ip), vehicle: water",115 % of control
COC1C(O)C(C)OC(OC2C(Oc3cccc4c(O)c5c(=O)oc6ccc(C)c7c(=O)oc(c34)c5c67)OC(C)C(O)C2O)C1O (stereo not drawn),T/C,"dose: 12.5 mg/kg/injection, schedule: Q04DX002 (ip), vehicle: Klucel (hydroxypropylcellulose) (HPC)",105 % of control and 112 % of control
same,T/C,"dose: 12.5 mg/kg/injection, schedule: Q04DX003 (ip), vehicle: Klucel (hydroxypropylcellulose) (HPC)",106 % of control
same,T/C,"dose: 25.0 mg/kg/injection, schedule: Q04DX002 (ip), vehicle: Klucel (hydroxypropylcellulose) (HPC)",107 % of control and 118 % of control
same,T/C,"dose: 25.0 mg/kg/injection, schedule: Q04DX003 (ip), vehicle: Klucel (hydroxypropylcellulose) (HPC)",116 % of control
same,T/C,"dose: 50.0 mg/kg/injection, schedule: Q04DX002 (ip), vehicle: Klucel (hydroxypropylcellulose) (HPC)",106 % of control
same,T/C,"dose: 50.0 mg/kg/injection, schedule: Q04DX003 (ip), vehicle: Klucel (hydroxypropylcellulose) (HPC)",106 % of control
same,T/C,"dose: 100.0 mg/kg/injection, schedule: Q04DX002 (ip), vehicle: Klucel (hydroxypropylcellulose) (HPC)",107 % of control and 100 % of control
same,T/C,"dose: 100.0 mg/kg/injection, schedule: Q04DX003 (ip), vehicle: Klucel (hydroxypropylcellulose) (HPC)",110 % of control
CN(C)CCNc1ccc(O)c2c1C(=O)c1ccccc1C2=O,T/C,"dose: 10.0 mg/kg/injection, schedule: Q01DX009 (ip), vehicle: acid diluted with saline",121 % of control
same,T/C,"dose: 20.0 mg/kg/injection, schedule: Q01DX009 (ip), vehicle: acid diluted with saline",104 % of control and 115 % of control
same,T/C,"dose: 40.0 mg/kg/injection, schedule: Q01DX009 (ip), vehicle: acid diluted with saline",103 % of control
same,T/C,"dose: 80.0 mg/kg/injection, schedule: Q01DX009 (ip), vehicle: acid diluted with saline",115 % of control and 120 % of control
O=c1c(O)c(-c2ccc(O)c(O)c2)oc2cc(O)cc(O)c12,T/C,"dose: 100.0 mg/kg/injection, schedule: Q04DX003 (ip), vehicle: other",89 % of control
same,T/C,"dose: 800.0 mg/kg/injection, schedule: Q04DX003 (ip), vehicle: other",87 % of control
COc1cc2oc(=O)ccc2cc1[C@@H]1OC(=O)C2(C)O[C@@H]12 (stereo partly drawn),T/C,"dose: 0.15 mg/kg/injection, schedule: Q01DX009 (ip), vehicle: water",91 % of control
same,T/C,"dose: 0.31 mg/kg/injection, schedule: Q01DX009 (ip), vehicle: water",106 % of control
same,T/C,"dose: 0.62 mg/kg/injection, schedule: Q01DX009 (ip), vehicle: water",111 % of control
same,T/C,"dose: 1.25 mg/kg/injection, schedule: Q01DX009 (ip), vehicle: water",94 % of control
same,T/C,"dose: 2.5 mg/kg/injection, schedule: Q01DX009 (ip), vehicle: water",88 % of control
same,T/C,"dose: 5.0 mg/kg/injection, schedule: Q01DX009 (ip), vehicle: water",90 % of control
same,T/C,"dose: 10.0 mg/kg/injection, schedule: Q01DX009 (ip), vehicle: water",102 % of control
O=[N+]([O-])O.[Ga],T/C,"dose: 12.5 mg/kg/injection, schedule: Q01DX005 (ip), vehicle: saline",97 % of control
same,T/C,"dose: 12.5 mg/kg/injection, schedule: Q04DX003 (ip), vehicle: saline",103 % of control
same,T/C,"dose: 25.0 mg/kg/injection, schedule: Q01DX005 (ip), vehicle: saline",96 % of control
same,T/C,"dose: 25.0 mg/kg/injection, schedule: Q04DX003 (ip), vehicle: saline",108 % of control
same,T/C,"dose: 50.0 mg/kg/injection, schedule: Q01DX005 (ip), vehicle: saline",87 % of control
same,T/C,"dose: 50.0 mg/kg/injection, schedule: Q04DX003 (ip), vehicle: saline",106 % of control
same,T/C,"dose: 100.0 mg/kg/injection, schedule: Q04DX003 (ip), vehicle: saline",87 % of control
Nc1ncnc2c1ncn2C1OC(CO)CC1O (stereo not drawn),T/C,"dose: 37.5 mg/kg/injection, schedule: Q04DX002 (ip), vehicle: Klucel (hydroxypropylcellulose) (HPC)",101 % of control
same,T/C,"dose: 75.0 mg/kg/injection, schedule: Q04DX002 (ip), vehicle: Klucel (hydroxypropylcellulose) (HPC)",110 % of control
same,T/C,"dose: 150.0 mg/kg/injection, schedule: Q04DX002 (ip), vehicle: Klucel (hydroxypropylcellulose) (HPC)",93 % of control
COc1cccc2c1C(=O)c1c(O)c3c(c(O)c1C2=O)C[C@@](O)(C(C)=O)C[C@@H]3OC1CC(N)C(O)C(C)O1 (stereo partly drawn),T/C,"dose: 1.8 mg/kg/injection, schedule: Q04DX003 (ip), vehicle: water",114 % of control
same,T/C,"dose: 2.0 mg/kg/injection, schedule: Q04DX003 (ip), vehicle: saline",158 % of control
same,T/C,"dose: 2.0 mg/kg/injection, schedule: Q07DX002 (iv), vehicle: saline",113 % of control
same,T/C,"dose: 2.16 mg/kg/injection, schedule: Q04DX003 (ip), vehicle: water",119 % of control
same,T/C,"dose: 3.4 mg/kg/injection, schedule: Q07DX002 (iv), vehicle: saline",106 % of control
same,T/C,"dose: 3.6 mg/kg/injection, schedule: Q04DX003 (ip), vehicle: water",103 % of control
same,T/C,"dose: 4.0 mg/kg/injection, schedule: Q04DX003 (ip), vehicle: saline",115 % of control
same,T/C,"dose: 5.7 mg/kg/injection, schedule: Q07DX002 (iv), vehicle: saline",104 % of control
same,T/C,"dose: 9.5 mg/kg/injection, schedule: Q07DX002 (iv), vehicle: saline",115 % of control
